The text below walks through data of patent publication US11622951B2, “Alpha-aminoadipate for treatment of vision loss and restoring sight” (The Schepens Eye Research Institute, Inc., priority 2013, dated 2023).

The subject of data set [1] is grafted retinal progenitor cells. Description: Integration of grafted EGFP+ retinal progenitor cells into pretreated wild-type host retina. Type of data set: in vivo, mouse. How it is done:
Mice were anesthetized by intraperitoneal injection of ketamine (62.5 mg/kg) and xylazine (12.5 mg/kg) and transcardially perfused with phosphate buffered saline (PBS) followed by 4% paraformaldehyde in PBS. Retinal flat-mounts or transverse retinal sections (14 μm) were preblocked with PBS containing 3% bovine serum albumin (Sigma-Aldrich, St. Louis, Mo.) and 0.3% Triton X (Sigma-Aldrich) and incubated, first, with primary antibody overnight, and then with secondary antibody for 1 hour at room temperature. The following antibodies were used: Cy3-conjugated monoclonal antibody against GFAP (1:1000; Sigma), Brn-3b (1:200; Santa Cruz Biotechnology; Santa Cruz, Calif.), mouse anti-rhodopsin (1:4000; Rho1D4), chick anti-cone-opsin (1:300), and Cy-2, Cy-3 or Cy-5-conjugated secondary antibody (Jackson ImmunoResearch; West Grove, Pa.). Assessment of morphological integration were quantified by counting EGFP+ cells located outside of transplanted cell clusters in retinal whole-mounts. Statistical significance was determined by either the two tailed student t test or ANOVA.
At 2 days before transplantation, 2 μl of a solution containing either α-AA (1 μg/μl) or saline (control) was injected unilaterally into the subretinal space of recipient wild-type or Gnat1^−/− mice (>2 months old). The procedure for donor cell preparation was essentially as described by Kinouchi et al, 2003, Nat Neurosci, 6:863-868. Briefly, retinal progenitor cells were isolated from postnatal day 0 (P0) EGFP transgenic mice. […]
If transient disruption of retinal glia with α-AA promotes morphological integration of grafted retinal progenitors in vivo was next investigated. […] Thus, in the following studies, cell transplantation was performed at day 2 after α-AA pretreatment when temporal disruption of residential glial structure by α-AA was detected that effectively ameliorates the host barrier to cell integration and promotes grafted cell migration into the host retina.

Data set [2] deals with rod photoreceptor cell function. Description: Scotopic ERG a-wave after retinal progenitor transplantation in Gnat1-/- mice. The class given is in vivo, mouse. The following applies: pretreatment plus retinal progenitor cell transplantation, 21 days post transplantation. How it is done: At 2 days before transplantation, 2 μl of a solution containing either α-AA (1 μg/μl) or saline (control) was injected unilaterally into the subretinal space of recipient wild-type or Gnat1^−/− mice (>2 months old). The procedure for donor cell preparation was essentially as described by Kinouchi et al, 2003, Nat Neurosci, 6:863-868. Briefly, retinal progenitor cells were isolated from postnatal day 0 (P0) EGFP transgenic mice. Cell suspensions containing approximately 1×10^6 dissociated cells were injected slowly through a glass micropipette into the subretinal space of pretreated recipient mice through the same injection site where either saline or α-AA had been injected 2 days prior.
At 21 days post transplantation, Gnat1−/− mice that had received either α-AA or saline-pretreatment followed by retinal progenitor cell transplantation were analyzed by full-field ERG. Mice were dark adapted for 12 hours and then anesthetized by intraperitoneal injection of ketamine (62.5 mg/kg) and xylazine (12.5 mg/kg). […] A total of six scans were taken and averaged; the a-wave amplitudes were measured from baseline to the peak in the cornea-negative direction. […] Statistical significance was calculated using the Student's t test or ANOVA. […]

Take `NC(CCCC(=O)O)C(=O)O` (stereo not drawn) [α-AA, alpha-aminoadipate]: the “number of cells repopulated the host retina” value in data set [1] (transplantation performed after day 5 post treatment) is “drastically diminished”. The “increase in number of engrafted cells bearing long neurites (>3 body length)” value in data set [1] (wild-type hosts, three weeks post transplantation, vs saline-treated or untreated retinas) was 7-11 fold. In data set [1] (wild-type hosts, transplantation day 2 after pretreatment, three weeks post transplantation, vs saline-treated or untreated retinas), the “increase in the number of EGFP+ cells repopulated into the host retina” value is reported as 3-5 fold. In addition, the “ERG a-wave (rod photoreceptor response)” value in data set [2] is on record as “a typical a-wave was detected”.
